Tests used:
Type in all cases: in vivo
[1] = system: Phytophthora infestans; experiment: whole plant or invertebrate; conditions: Phytophthora infestans, in Solanum lycopersicum, 24 h; for pest or weed control at 200 ppm: foliar, read-out: PHYTIN percent control of disease, 200 ppm on foliage, tomato, one-day protectant test
[2] = system: Puccinia recondita tritici; experiment: Leaf Rust of Wheat (PUCCRT), whole-plant fungicide test; conditions: Puccinia recondita, foliar, 24 h, 200 ppm on foliage, one-day protectant test, read-out: PUCCRT percent control of disease
[3] = system: Septoria tritici; experiment: Speckled Leaf Blotch of Wheat (SEPTTR), whole-plant fungicide test; conditions: Zymoseptoria tritici, 24 h, one-day protectant test, read-out: SEPTTR percent control of disease; for pest or weed control at 200 ppm: foliar, 200 ppm on foliage
[4] = system: Erysiphe graminis f. sp. tritici; experiment: Powdery Mildew of Wheat (ERYSGT), whole-plant fungicide test; conditions: Blumeria graminis, 24 h, one-day protectant test, read-out: ERYSGT percent control of disease; for pest or weed control at 200 ppm: foliar, 200 ppm on foliage
[5] = system: Erysiphe cichoracaerum; experiment: Cucumber Powdery Mildew (ERYSCI), whole-plant fungicide test; conditions: Erysiphe, foliar, 24 h, 200 ppm on foliage, one-day protectant test, read-out: ERYSCI percent control of disease
[6] = system: Leptosphaeria nodorum; experiment: Glume Blotch of Wheat (LEPTNO), whole-plant fungicide test; conditions: Parastagonospora nodorum, foliar, 24 h, 200 ppm on foliage, one-day protectant test, read-out: LEPTNO percent control of disease
[7] = system: Colletotricum lagenarium; experiment: Cucumber Anthracnose (COLLLA), whole-plant fungicide test; conditions: Cucumis sativus, foliar, 24 h, 200 ppm on foliage, one-day protectant test, read-out: COLLLA percent control of disease
[8] = system: Magnaporthe grisea; experiment: whole plant or invertebrate; conditions: Pyricularia oryzae, in Oryza sativa, foliar, 24 h, read-out: PYRIOR percent control of disease, 200 ppm on foliage, rice, one-day protectant test
[9] = system: Cochliobolus sativus; experiment: Spot Blotch of Wheat (COCHSA), whole-plant fungicide test; conditions: Bipolaris sorokiniana, 24 h, one-day protectant test, read-out: COCHSA percent control of disease; for pest or weed control at 200 ppm: foliar, 200 ppm on foliage
Description: The activity of the compounds as effective fungicides was determined by applying the compounds to plants and observing control of fungal disease. The compounds were formulated at 200 ppm in 10 vol. percent acetone plus 90 vol. percent Triton X water (deionized water 99.99 wt. percent+0.01 wt. percent Triton X100), giving a “formulated test compound.” In a few cases, compounds were formulated at 100, 75 or 8.3 ppm rather than 200 ppm in 10 vol. percent acetone plus 90 vol. percent Triton X water (deionized water 99.99 wt. percent+0.01 wt. percent Triton X100), giving a ‘formulated test compound’. The compounds were tested for ability to control plant diseases in a 1-day protectant test (1DP) or a 2-day curative test (2DC). Formulated test compounds were applied to plants using a turn table sprayer fitted with two opposing air atomization nozzles which delivered approximately 1500 L/ha of spray volume. Plants were inoculated with spores of the fungus the next day (1DP), then incubated in an environment conducive to disease development. In a few cases, the compounds were tested for ability to control plant disease in a two-day curative test. Plants were inoculated with spores of the fungus two days prior to compound application, and incubated in an environment conducive to disease development both before and after compound application (2DC). For all types of tests, disease severity was evaluated 4 to 28 days later, depending on the speed of disease development.
Each pot contained 3-8 seedlings. These plants were sprayed until wet with the formulated test compound. On the following day, the leaves were inoculated with an aqueous spore suspension of Cochliobolus sativus and the plants were kept in high humidity for one to two days to permit spores to germinate and infect the leaf. The plants were then transferred to a greenhouse until disease developed on untreated control plants.
The following table presents the activity of typical compounds of the present invention when evaluated in these experiments. The effectiveness of the test compounds in controlling disease was determined by assessing the severity of disease on treated plants, then converting the severity to percent control based on the level of disease on untreated, inoculated plants.
TABLE 4: Activity of compounds as fungicides. Data are the level at which the given disease was controlled when the given compound was applied to the foliage of the plant at 200 ppm. In a few cases (noted in the table) the compound was applied to the plant at 100, 75 or 8.3 ppm. The plant was inoculated with the fungus one day after treatment. In a few cases (noted in the table) the plant was inoculated with the fungus two days before treatment.

Compound | pest or weed control at 200 ppm [1] [%] | pest or weed control at 200 ppm [2] [%] | pest or weed control at 200 ppm [3] [%] | pest or weed control at 200 ppm [4] [%] | pest or weed control at 200 ppm [5] [%] | pest or weed control at 200 ppm [6] [%] | pest or weed control at 200 ppm [7] [%] | pest or weed control at 200 ppm [8] [%] | pest or weed control at 200 ppm [9] [%] | pest or weed control at 100 ppm ([3]; 100 ppm (footnote a)) [%] | pest or weed control at 100 ppm ([4]; 100 ppm (footnote a)) [%] | pest or weed control at 100 ppm ([9]; 100 ppm (footnote a)) [%] | pest or weed control at 100 ppm ([1]; read-out: PHYTIN percent control of disease, 100 ppm (footnote a), tomato, one-day protectant test) [%]
CC(Nc1ncnc2scc(Cl)c12)c1ccc(C(F)(F)F)cn1 (stereo not drawn) [Compound 19] | 0 to 49 | 50 to 79 | 50 to 79 | 50 to 79 | 0 to 49 | 50 to 79 | 0 to 49 | 80 to 100 | 80 to 100 |  |  |  | 
CC(Nc1ncnc2scc(Cl)c12)c1ccc(OCC(F)(F)F)nc1 (stereo not drawn) [Compound 38] | 80 to 100 | 80 to 100 | 50 to 79 | 80 to 100 | 80 to 100 | 50 to 79 | 0 to 49 | 80 to 100 | 0 to 49 |  |  |  | 
Clc1csc2ncnc(NC3Cc4ccccc4C3)c12 [Compound 9] | 80 to 100 | 80 to 100 | 0 to 49 | 0 to 49 | 80 to 100 | 50 to 79 | 0 to 49 | 80 to 100 | 80 to 100 |  |  |  | 
CC(Nc1ncnc2scc(Cl)c12)c1cccn1C (stereo not drawn) [Compound 13] | 0 to 49 | 0 to 49 | 0 to 49 | 0 to 49 | 0 to 49 | 0 to 49 | 0 to 49 | 50 to 79 | 0 to 49 |  |  |  | 
CC(Nc1ncnc2scc(Cl)c12)c1ccc(OCl)nc1 (stereo not drawn) [Compound 29] | 80 to 100 | 80 to 100 |  |  | 80 to 100 | 80 to 100 | 0 to 49 | 80 to 100 |  | 50 to 79 | 80 to 100 | 0 to 49 | 
CC(Nc1ncnc2scc(Cl)c12)c1cnco1 (stereo not drawn) [Compound 21] |  | 80 to 100 | 50 to 79 | 0 to 49 | 50 to 79 | 0 to 49 |  | 80 to 100 | 0 to 49 |  |  |  | 
CC(Nc1ncnc2scc(Cl)c12)c1ccn(C(C)C)c1 (stereo not drawn) [Compound 16] | 0 to 49 | 0 to 49 | 0 to 49 | 0 to 49 | 0 to 49 | 0 to 49 | 0 to 49 | 50 to 79 | 50 to 79 |  |  |  | 
CC(Nc1ncnc2scc(Cl)c12)c1ccc[nH]1 (stereo not drawn) [Compound 11] | 0 to 49 | 50 to 79 | 50 to 79 | 0 to 49 | 0 to 49 | 50 to 79 | 0 to 49 | 50 to 79 | 0 to 49 |  |  |  | 
CSc1ccc(C(C)Nc2ncnc3scc(Cl)c23)cc1 (stereo not drawn) [Compound 42] | 0 to 49 | 80 to 100 | 80 to 100 | 50 to 79 | 80 to 100 | 50 to 79 | 0 to 49 | 80 to 100 | 0 to 49 |  |  |  | 
CC(Nc1ncnc2scc(Cl)c12)c1ccc(C(F)(F)F)nc1 (stereo not drawn) [Compound 44] | 50 to 79 | 80 to 100 | 0 to 49 | 0 to 49 | 80 to 100 | 50 to 79 | 0 to 49 | 80 to 100 | 50 to 79 |  |  |  | 
COc1ccc(C(C)Nc2ncnc3scc(Br)c23)cn1 (stereo not drawn) [Compound 45, (5-Bromothieno[2,3-d]pyrimidin-4-yl)-[1-(2-methoxypyridin-5-yl)ethyl]amine] | 80 to 100 | 80 to 100 | 50 to 79 | 80 to 100 | 80 to 100 | 50 to 79 | 0 to 49 | 80 to 100 | 0 to 49 |  |  |  | 
CC(Nc1ncnc2scc(Cl)c12)c1ccc(OCc2ccccc2)cn1 (stereo not drawn) [Compound 35] | 50 to 79 | 80 to 100 | 50 to 79 | 0 to 49 | 50 to 79 | 50 to 79 | 80 to 100 | 80 to 100 | 0 to 49 |  |  |  | 
CC(C)c1ccc(CCNc2ncnc3scc(Cl)c23)cc1 [Compound 7] |  | 80 to 100 | 50 to 79 | 80 to 100 | 80 to 100 | 50 to 79 | 0 to 49 | 80 to 100 | 50 to 79 |  |  |  | 80 to 100
CC(Nc1ncnc2scc(Cl)c12)c1nccs1 (stereo not drawn) [Compound 22] |  | 80 to 100 | 50 to 79 | 0 to 49 | 80 to 100 | 0 to 49 |  | 80 to 100 | 0 to 49 |  |  |  | 
CC(COc1ccc(C(F)(F)F)cn1)Nc1ncnc2scc(Cl)c12 (stereo not drawn) [Compound 18, 5-chloro-N-(1-methyl-2-{[5-(trifluoromethyl)pyridin-2-yl]oxy}ethyl)thieno [2,3-d]pyrimidin-4-amine] | 80 to 100 | 80 to 100 | 80 to 100 | 80 to 100 | 80 to 100 | 80 to 100 | 0 to 49 | 80 to 100 | 0 to 49 |  |  |  | 
CC(Nc1ncnc2scc(Cl)c12)c1ccn(C)c1 (stereo not drawn) [Compound 12] | 80 to 100 | 50 to 79 | 0 to 49 | 0 to 49 | 0 to 49 | 50 to 79 | 0 to 49 | 80 to 100 | 0 to 49 |  |  |  | 
COC(=O)c1ccc(CNc2ncnc3scc(Cl)c23)cc1 [Compound 20] |  | 0 to 49 | 50 to 79 | 0 to 49 | 0 to 49 | 0 to 49 |  | 0 to 49 | 0 to 49 |  |  |  | 
